SMILES strings stand for the structures.

The source of these data is BindingDB's records for doi:10.1016/j.bmcl.2006.08.080 (Johnson & Johnson Pharmaceutical, 2006).

Sequence of Receptor-type tyrosine-protein kinase FLT3 (P36888 whole entry, looked up): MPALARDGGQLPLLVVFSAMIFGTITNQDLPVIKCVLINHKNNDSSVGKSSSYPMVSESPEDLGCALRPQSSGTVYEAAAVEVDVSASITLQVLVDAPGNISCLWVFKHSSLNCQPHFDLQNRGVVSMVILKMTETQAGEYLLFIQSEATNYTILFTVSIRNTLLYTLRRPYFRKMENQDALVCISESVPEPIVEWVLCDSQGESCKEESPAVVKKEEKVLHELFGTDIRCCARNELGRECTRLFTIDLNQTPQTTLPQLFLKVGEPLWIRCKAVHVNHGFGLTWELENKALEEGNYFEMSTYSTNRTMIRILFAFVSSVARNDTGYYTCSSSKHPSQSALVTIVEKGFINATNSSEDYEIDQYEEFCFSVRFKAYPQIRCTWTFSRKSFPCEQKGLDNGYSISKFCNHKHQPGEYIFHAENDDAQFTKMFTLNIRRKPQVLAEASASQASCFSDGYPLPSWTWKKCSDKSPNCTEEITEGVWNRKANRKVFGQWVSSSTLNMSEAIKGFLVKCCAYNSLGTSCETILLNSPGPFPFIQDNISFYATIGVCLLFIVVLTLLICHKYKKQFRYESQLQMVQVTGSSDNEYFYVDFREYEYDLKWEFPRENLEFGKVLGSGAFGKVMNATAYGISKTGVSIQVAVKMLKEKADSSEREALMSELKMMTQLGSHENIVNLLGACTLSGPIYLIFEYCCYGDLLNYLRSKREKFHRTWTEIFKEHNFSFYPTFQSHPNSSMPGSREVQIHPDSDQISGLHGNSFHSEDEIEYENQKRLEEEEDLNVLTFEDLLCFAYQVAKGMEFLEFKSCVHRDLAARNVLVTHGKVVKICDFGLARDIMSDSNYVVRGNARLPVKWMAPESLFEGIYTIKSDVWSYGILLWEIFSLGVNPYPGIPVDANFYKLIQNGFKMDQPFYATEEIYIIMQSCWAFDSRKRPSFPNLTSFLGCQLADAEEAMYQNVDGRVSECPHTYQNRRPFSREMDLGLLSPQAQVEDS

The first experiment has as its target Receptor-type tyrosine-protein kinase FLT3 (Homo sapiens, UniProt P36888). Kind of experiment: FLT3 Inhibition Assay.
Settings: not given
The procedure:
The compounds were tested for their ability to inhibit the phosphorylation of poly(Glu:Tyr) by purified recombinant human FLT3. The extent of phosphorylation was quantitated by a fluorescent polarization competition immunoassay (Ex: 485 nm, Em:530 nm) using an anti-phosphotyrosine antibody and a phosphotyrosine tracer (Green Tyrosine Kinase Assay Kit, PanVera P2837).
Usually IC50 stands for the concentration at which inhibition is half-maximal. The low end stands for greater potency in that assay, the high end for weaker potency in that assay. Molecule `O=S1(=O)CCN(c2ccc(Nc3ncc4ccn(-c5ccccn5)c4n3)cc2)CC1` [4-(4-{[7-(pyridin-2-yl)-7H-pyrrolo[2,3-d]pyrimidin-2-yl]amino}phenyl)-1,4-thiomorpholine-1,1-dione] yielded an IC50 below 1 nM.

Another experiment addresses T1, Aurora kinase A (Mus musculus, UniProt P97477).
T1 sequence (P97477 whole entry): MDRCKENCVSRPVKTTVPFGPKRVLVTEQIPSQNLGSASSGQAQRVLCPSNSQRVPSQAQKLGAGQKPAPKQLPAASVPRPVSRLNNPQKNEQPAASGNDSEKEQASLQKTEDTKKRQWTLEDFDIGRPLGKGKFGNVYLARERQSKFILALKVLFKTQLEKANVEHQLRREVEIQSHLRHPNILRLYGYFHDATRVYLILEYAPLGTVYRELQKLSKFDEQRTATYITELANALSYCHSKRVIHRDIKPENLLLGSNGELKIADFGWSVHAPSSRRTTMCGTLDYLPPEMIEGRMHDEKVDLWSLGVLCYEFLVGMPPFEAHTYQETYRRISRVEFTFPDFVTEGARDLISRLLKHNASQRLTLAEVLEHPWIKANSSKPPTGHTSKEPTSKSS
Kind of experiment: Aurora Kinase Inhibition Assay. The note with it: pH 7.5; 22 °C. The procedure: The compounds were tested for their ability to inhibit the phosphorylation of serine 10 of histone-H3 by purified recombinant murine Aurora-A enzyme. The phosphorylation of serine 10 was detected colorimetrically using Phospho-Histone H3 (Ser10) (6G3) Mouse mAb (9706, Cell Signaling Technologies, Danvers, MA).
Turning to `CN1CCN(c2cccc(Nc3ncc4ccn(-c5cccc(C#N)c5)c4n3)c2)CC1` [3-(2-{[3-(4-methylpiperazin-1-yl)phenyl]amino}-7H-pyrrolo[2,3-d]pyrimidin-7-yl)benzonitrile], the IC50 is 13 nM.
On the same count and under the same terms, with `c1cc(N2CCOCC2)ccc1Nc1ncc2ccn(C3CCCCC3)c2n1` [7-cyclohexyl-N-[4-(morpholin-4-yl)phenyl]-7H-pyrrolo[2,3-d]pyrimidin-2-amine] the figure was 49 nM; with `CN1CCN(c2ccc(Nc3ncc4ccn(C5CC6CCC5C6)c4n3)cc2)CC1` (stereo not given) [7-{bicyclo[2.2.1]heptan-2-yl}-N-[4-(4-methylpiperazin-1-yl)phenyl]-7H-pyrrolo[2,3-d]pyrimidin-2-amine], 39 nM; with `CN1CCN(c2ccc(Nc3ncc4ccn(-c5cccc(S(C)(=O)=O)c5)c4n3)cc2)CC1` [7-(3-methanesulfonylphenyl)-N-[4-(4-methylpiperazin-1-yl)phenyl]-7H-pyrrolo[2,3-d]pyrimidin-2-amine], 9 nM.
Still for that read-out and setting: the figure for `CN1CCN(c2cccc(Nc3ncc4ccn(-c5ccccn5)c4n3)c2)CC1` [N-[3-(4-methylpiperazin-1-yl)phenyl]-7-(pyridin-2-yl)-7H-pyrrolo[2,3-d]pyrimidin-2-amine] is 5 nM; for `CC(C)c1cccc(-n2ccc3cnc(Nc4cccc(N5CCN(C)CC5)c4)nc32)c1` [N-[3-(4-methylpiperazin-1-yl)phenyl]-7-[3-(propan-2-yl)phenyl]-7H-pyrrolo[2,3-d]pyrimidin-2-amine] it is 29 nM; for `COc1cc2c(Nc3ccc(NC(=O)c4ccccc4)cc3)ncnc2cc1OCCCN1CCOCC1` [N-[4-({6-methoxy-7-[3-(morpholin-4-yl)propoxy]quinazolin-4-yl}amino)phenyl]benzamide] it is 39 nM.
On the same count and under the same terms, the figure for `CN1CCN(c2ccc(Nc3ncc4ccn(-c5cccnc5)c4n3)cc2)CC1` [N-[4-(4-methylpiperazin-1-yl)phenyl]-7-(pyridin-3-yl)-7H-pyrrolo[2,3-d]pyrimidin-2-amine] is 13 nM.
Consider `COCCN1CCN(Nc2ncc3ccn(C4CCCCC4)c3n2)CC1` [N-{7-cyclohexyl-7H-pyrrolo[2,3-d]pyrimidin-2-yl}-4-(2-methoxyethyl)piperazin-1-amine], for which inhibition was half-maximal at 6 nM (IC50).
Regarding `CN1CCN(c2ccc(Nc3ncc4ccn(C5Cc6ccccc6C5)c4n3)cc2)CC1` [7-(2,3-dihydro-1H-inden-2-yl)-N-[4-(4-methylpiperazin-1-yl)phenyl]-7H-pyrrolo[2,3-d]pyrimidin-2-amine], inhibition was half-maximal at 18 nM (IC50). This IC50 lies about 3-fold higher than the previous one.
Same read-out and setting: with `O=S1(=O)CCN(c2ccc(Nc3ncc4ccn(C5CCCCC5)c4n3)cc2)CC1` [4-[4-({7-cyclohexyl-7H-pyrrolo[2,3-d]pyrimidin-2-yl}amino)phenyl]-1,4-thiomorpholine-1,1-dione] the figure was 12 nM; with `CN1CCN(c2cccc(Nc3ncc4ccn(-c5cccc(C(N)=O)c5)c4n3)c2)CC1` [3-(2-{[3-(4-methylpiperazin-1-yl)phenyl]amino}-7H-pyrrolo[2,3-d]pyrimidin-7-yl)benzamide], 11 nM.
Same read-out and setting: the figure for `CN1CCN(c2cccc(Nc3ncc4ccn(-c5cccc(C(=O)NC6CCCC6)c5)c4n3)c2)CC1` [N-cyclopentyl-3-(2-{[3-(4-methylpiperazin-1-yl)phenyl]amino}-7H-pyrrolo[2,3-d]pyrimidin-7-yl)benzamide] is 820 nM; for `COc1cccc(-n2ccc3cnc(Nc4ccc(N5CCN(C)CC5)cc4)nc32)c1` [7-(3-methoxyphenyl)-N-[4-(4-methylpiperazin-1-yl)phenyl]-7H-pyrrolo[2,3-d]pyrimidin-2-amine] it is 18 nM; for `O=S1(=O)CCN(c2ccc(Nc3ncc4ccn(-c5ccccn5)c4n3)cc2)CC1` [4-(4-{[7-(pyridin-2-yl)-7H-pyrrolo[2,3-d]pyrimidin-2-yl]amino}phenyl)-1,4-thiomorpholine-1,1-dione] it is 0.8 nM.
`COc1cccc(-n2ccc3cnc(Nc4cccc(N5CCN(C)CC5)c4)nc32)c1` [7-(3-methoxyphenyl)-N-[3-(4-methylpiperazin-1-yl)phenyl]-7H-pyrrolo[2,3-d]pyrimidin-2-amine] displayed an IC50 of 6 nM.
The same measure, in the same setting: with `CN1CCN(c2cccc(Nc3ncc4ccn(-c5cccnc5)c4n3)c2)CC1` [N-[3-(4-methylpiperazin-1-yl)phenyl]-7-(pyridin-3-yl)-7H-pyrrolo[2,3-d]pyrimidin-2-amine] the figure was 12 nM.
Still for that read-out and setting: with `CN1CCN(c2cccc(Nc3ncc4ccn(-c5ccccc5)c4n3)c2)CC1` [N-[3-(4-methylpiperazin-1-yl)phenyl]-7-phenyl-7H-pyrrolo[2,3-d]pyrimidin-2-amine] the figure was 3 nM; with `CN1CCN(c2cccc(Nc3ncc4ccn(-c5cccc(S(C)(=O)=O)c5)c4n3)c2)CC1` [7-(3-methanesulfonylphenyl)-N-[3-(4-methylpiperazin-1-yl)phenyl]-7H-pyrrolo[2,3-d]pyrimidin-2-amine], 10 nM.
